Test results reported in patent publication US20200179402A1, “MONOHYDROXYLATED 17ALPHA-HYDROXYPROGESTERONE CAPROATE FOR REDUCING CONTRACTILITY” (Indiana University Research and Technology Corporation, priority 2016, published 2020).

Tests used:
human myometrial tissue = test: Oxytocin-induced uterine contractility in human myometrial tissue strips (myograph); assay type: cell-based; conditions: oxytocin 100 nm; for oxytocin-induced contractile frequency / oxytocin-induced contractile force (AUC): 10^−6 M for 30 minutes, over a 4-hour period, normalized to matched vehicle control (DMSO)
Method: In this Example, the effect of the monohydroxylated 17α-hydroxyprogesterone caproate (HPC-OH), 17α-hydroxyprogesteryl 6-hydroxycaproate, as compared to its parent compound, 17-hydoxyprogesterone caproate (HPC), and progesterone (P4) was analyzed in the setting of oxytocin-induced uterine contractility in human myometrial tissue. […] Myometrial strips (10 mm) were mounted in a digital myograph system ([…]) and maintained in modified Krebs buffer solution at physiologic temperature (37° C.) with constant premixed gas inflow. Oxytocin-induced (100 nm) contractility was measured before and after treatment with HPC-OH, HPC, or P4 (1 μm) for 30 minutes. Myometrial contractile frequency and force (AUC) were determined for each treatment over a 4-hour period and normalized to a matched vehicle control (DMSO). Statistical analysis was by student t-test (GraphPad Prism 7.0a). Statistical significance was defined as p<0.05.

THP-1 mononuclear cells = test: LPS-induced cytokine production by THP-1 mononuclear cells (multiplex assay); assay type: cell-based; conditions: 100 nM for 24 hours, then LPS 1 μg/mL for 24 hours
Method: In this Example, the ability of HPC—OH to decrease systemic inflammation-induced myometrial contractility was compared to HPC and progesterone (P4).
(§1) An in vitro model of systemic inflammation-induced uterine contractility was created with mononuclear and myometrial cell cultures to assess the effect of progestogen treatment. THP-1 mononuclear cells were cultured with HPC—OH (17α-hydroxyprogesteryl 6-hydroxycaproate), HPC, or P4 (all at 100 nM) for 24 hours then treated with lipopolysaccharide (LPS, 1 μg/mL) for 24 hours. Culture supernatant was characterized by multiplex assay for 7 inflammation-related cytokines: IL-1α, […], IL-6, IL-8, IL-10, TNFα, and MCP-1. Next, PHM1-41 human pregnancy myometrial cells pretreated with HPC for 24 hours were incubated with THP-1 culture supernatant (from the previous step) for 24 hours. Myometrial contractility was assessed after stimulation with 100 μM oxytocin by in-cell western (ICW) quantification of myosin light chain (MLC20) phosphorylation, a molecular event preceding contractility.

[1] = women with history of prior spontaneous preterm birth, clinical trials; cited from earlier work
[2] = Pharmacokinetics in pregnant patients given intramuscular hydroxyprogesterone caproate; conditions: female, human, plasma, im, 250 mg; for AUC: AUC(1-t); for AUC / Cmax / Tmax: 250 mg intramuscular; for AUC / Cmax: mean (standard deviation)
Method: (§2) Female patients with a singleton pregnancy received intramuscular doses of 250 mg hydroxyprogesterone caproate for the reduction of preterm birth starting between 16 weeks 0 days and 20 weeks 6 days. More particularly, the patients were divided into three sample groups: Group 1 (patients at 16-20 weeks gestation); Group 2 (patients at 24-28 weeks gestation); and Group 3 (patients at 32-36 weeks gestation). All patients had blood drawn daily for 7 days to evaluate pharmacokinetics.

[3] = system: PHM1-41 human pregnancy myometrial cells; test: MLC20 phosphorylation by in-cell western in HPC-primed myometrial cells incubated with THP-1 culture supernatant; assay type: cell-based; conditions: supernatant of treated THP-1 cells for 24 hours, 100 μM oxytocin
Method: as §1

[4] = human, in vivo
Method: as §2

[5] = Group 1 (16-20 weeks gestation, N = 6)
[6] = Group 2 (24-28 weeks gestation, N = 8)
[7] = Group 3 (32-36 weeks gestation, N = 11)

Compound: CCCCCC(=O)O[C@]1(C(C)=O)CC[C@H]2[C@@H]3CCC4=CC(=O)CC[C@]4(C)[C@H]3CC[C@@]21C [HPC, 17α-hydroxyprogesterone caproate]
- oxytocin-induced contractile frequency (human myometrial tissue): 71%+/−15%
- production of IL-10 (THP-1 mononuclear cells): significantly reduced
- production of MCP-1 (THP-1 mononuclear cells): decreased
- significantly increase TNFα production (THP-1 mononuclear cells): significantly increase
- risk reduction of recurrent preterm delivery [1]: 33%
- half-life [2]: 394 h
- AUC [2, 5]: 571 ng·h/mL
- AUC [2, 6]: 1270 ng·h/mL
- AUC [2, 7]: 1270 ng·h/mL
- Cmax [2, 5]: 5 ng/mL
- Cmax [2, 6]: 12.5 ng/mL
- Cmax [2, 7]: 12.3 ng/mL
- Tmax [2, 5]: 132 h
- Tmax [2, 6]: 24 h
- Tmax [2, 7]: 48 h

Compound: CC(=O)[C@@]1(OC(=O)CCCCCO)CC[C@H]2[C@@H]3CCC4=CC(=O)CC[C@]4(C)[C@H]3CC[C@@]21C [HPC—OH, 17α-hydroxyprogesteryl 6-hydroxycaproate]
- oxytocin-induced contractile force (AUC) (human myometrial tissue): 66%+/−33%
- oxytocin-induced contractile frequency (human myometrial tissue): 67%+/−21%
- contractile force when compared directly to HPC (human myometrial tissue; 10^−6 M, compared directly to HPC): 64%+/−33%
- monocyte production of IL-1α (THP-1 mononuclear cells): did not result in a statistically significant change
- monocyte production of IL-1β (THP-1 mononuclear cells): did not result in a statistically significant change
- monocyte production of IL-6 (THP-1 mononuclear cells): did not result in a statistically significant change
- monocyte production of IL-8 (THP-1 mononuclear cells): did not result in a statistically significant change
- production of IL-10 (THP-1 mononuclear cells): did not diminish
- production of MCP-1 (THP-1 mononuclear cells): decreased
- significantly increase TNFα production (THP-1 mononuclear cells): not
- levels of TNFα produced, compared with exposure to HPC (THP-1 mononuclear cells; versus HPC): significantly lower
- MLC20 phosphorylation compared with HPC treated supernatant ([3]; versus HPC treated supernatant): trended towards a significant decline
- half-life as compared to HPC [4]: longer half-life

Compound: CC(=O)[C@H]1CC[C@H]2[C@@H]3CCC4=CC(=O)CC[C@]4(C)[C@H]3CC[C@]12C [P4, progesterone]
- oxytocin-induced contractile force (AUC) (human myometrial tissue): 75%+/−30%
- oxytocin-induced contractile frequency (human myometrial tissue): 63%+/−18%
- production of IL-10 (THP-1 mononuclear cells): did not diminish
- MLC20 phosphorylation [3]: Increased phosphorylation
